Laboratory results reported in PubChem BioAssay (NCI).
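Cultured in 96-well plates, cells were exposed to test compound for 48 hours across five concentrations. GI50 is the concentration that inhibits growth by half. TGI denotes the concentration required for complete inhibition of growth.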

Experiments:
Assay in all cases: NCI tumour cell line growth inhibition, 48 h
ACHN renal = system: ACHN renal
HS 578T breast = system: HS 578T breast
HT29 colon = system: HT29 colon
SNB-75 CNS = system: SNB-75 CNS
HCT-116 colon = system: HCT-116 colon
SNB-19 CNS = system: SNB-19 CNS
TK-10 renal = system: TK-10 renal
SK-OV-3 ovarian = system: SK-OV-3 ovarian
HCT-15 colon = system: HCT-15 colon
MOLT-4 leukemia = system: MOLT-4 leukemia
CCRF-CEM leukemia = system: CCRF-CEM leukemia
MCF7 breast = system: MCF7 breast
OVCAR-8 ovarian = system: OVCAR-8 ovarian
KM12 colon = system: KM12 colon
DU-145 prostate = system: DU-145 prostate
RXF 393 renal = system: RXF 393 renal
SF-539 CNS = system: SF-539 CNS
NCI-H522 lung = system: NCI-H522 lung
K-562 leukemia = system: K-562 leukemia
SK-MEL-2 melanoma = system: SK-MEL-2 melanoma
SK-MEL-28 melanoma = system: SK-MEL-28 melanoma
SW-620 colon = system: SW-620 colon
HL-60(TB) leukemia = system: HL-60(TB) leukemia
SN12C renal = system: SN12C renal
EKVX NSCLC = system: EKVX NSCLC
MALME-3M melanoma = system: MALME-3M melanoma
COLO 205 colon = system: COLO 205 colon
A549 NSCLC = system: A549 NSCLC
IGROV1 ovarian = system: IGROV1 ovarian
RPMI-8226 leukemia = system: RPMI-8226 leukemia
MDA-MB-435 = system: MDA-MB-435
NCI-H23 lung = system: NCI-H23 lung
HCC-2998 colon = system: HCC-2998 colon
U251 CNS = system: U251 CNS
SK-MEL-5 melanoma = system: SK-MEL-5 melanoma
MDA-MB-231 breast = system: MDA-MB-231 breast
786-0 renal = system: 786-0 renal
BT-549 breast = system: BT-549 breast
PC-3 prostate = system: PC-3 prostate
UO-31 renal = system: UO-31 renal
SF-268 CNS = system: SF-268 CNS
A498 renal = system: A498 renal
CAKI-1 renal = system: CAKI-1 renal
OVCAR-4 ovarian = system: OVCAR-4 ovarian
UACC-62 melanoma = system: UACC-62 melanoma
UACC-257 melanoma = system: UACC-257 melanoma
SR leukemia = system: SR leukemia
NCI-H226 lung = system: NCI-H226 lung
T-47D breast = system: T-47D breast
OVCAR-3 ovarian = system: OVCAR-3 ovarian
LOX IMVI melanoma = system: LOX IMVI melanoma
M14 melanoma = system: M14 melanoma
NCI/ADR-RES ovarian = system: NCI/ADR-RES ovarian
HOP-62 NSCLC = system: HOP-62 NSCLC
NCI-H460 lung = system: NCI-H460 lung
SF-295 CNS = system: SF-295 CNS
OVCAR-5 ovarian = system: OVCAR-5 ovarian

## O=C1c2ccccc2S(=O)(=O)N1CSC(=S)N1CCOCC1
ACHN renal
  GI50: > 100 µM
  TGI: > 100 µM
HS 578T breast
  GI50: > 100 µM
  TGI: > 100 µM
HT29 colon
  GI50: 26.1 µM
  TGI: > 100 µM
SNB-75 CNS
  GI50: 65.4 µM
  TGI: > 100 µM
HCT-116 colon
  GI50: > 100 µM
  TGI: > 100 µM
SNB-19 CNS
  GI50: > 100 µM
  TGI: > 100 µM
TK-10 renal
  GI50: > 100 µM
  TGI: > 100 µM
SK-OV-3 ovarian
  GI50: > 100 µM
  TGI: > 100 µM
HCT-15 colon
  GI50: > 100 µM
  TGI: > 100 µM
MOLT-4 leukemia
  GI50: 19 µM
  TGI: > 100 µM
CCRF-CEM leukemia
  GI50: 7.9 µM
  TGI: 36.1 µM
MCF7 breast
  GI50: 49 µM
  TGI: > 100 µM
OVCAR-8 ovarian
  GI50: > 100 µM
  TGI: > 100 µM
KM12 colon
  GI50: > 100 µM
  TGI: > 100 µM
DU-145 prostate
  GI50: > 100 µM
  TGI: > 100 µM
RXF 393 renal
  GI50: > 100 µM
  TGI: > 100 µM
SF-539 CNS
  GI50: > 100 µM
  TGI: > 100 µM
NCI-H522 lung
  GI50: 24.8 µM
  TGI: > 100 µM
K-562 leukemia
  GI50: > 100 µM
  TGI: > 100 µM
SK-MEL-2 melanoma
  GI50: > 100 µM
  TGI: > 100 µM
SK-MEL-28 melanoma
  GI50: 61.8 µM
  TGI: > 100 µM
SW-620 colon
  GI50: 69.1 µM
  TGI: > 100 µM
HL-60(TB) leukemia
  GI50: 4.84 µM
  TGI: 49.9 µM
SN12C renal
  GI50: > 100 µM
  TGI: > 100 µM
EKVX NSCLC
  GI50: > 100 µM
  TGI: > 100 µM
MALME-3M melanoma
  GI50: > 100 µM
  TGI: > 100 µM
COLO 205 colon
  GI50: 62.4 µM
  TGI: > 100 µM
A549 NSCLC
  GI50: > 100 µM
  TGI: > 100 µM
IGROV1 ovarian
  GI50: > 100 µM
  TGI: > 100 µM
RPMI-8226 leukemia
  GI50: 15.8 µM
  TGI: 51.3 µM
MDA-MB-435
  GI50: > 100 µM
  TGI: > 100 µM
NCI-H23 lung
  GI50: > 100 µM
  TGI: > 100 µM
HCC-2998 colon
  GI50: > 100 µM
  TGI: > 100 µM
U251 CNS
  GI50: > 100 µM
  TGI: > 100 µM
SK-MEL-5 melanoma
  GI50: 58.1 µM
  TGI: > 100 µM
MDA-MB-231 breast
  GI50: > 100 µM
  TGI: > 100 µM
786-0 renal
  GI50: > 100 µM
  TGI: > 100 µM
BT-549 breast
  GI50: > 100 µM
  TGI: > 100 µM
PC-3 prostate
  GI50: 38.3 µM
  TGI: > 100 µM
UO-31 renal
  GI50: > 100 µM
  TGI: > 100 µM
SF-268 CNS
  GI50: > 100 µM
  TGI: > 100 µM
A498 renal
  GI50: > 100 µM
  TGI: > 100 µM
CAKI-1 renal
  GI50: > 100 µM
  TGI: > 100 µM
OVCAR-4 ovarian
  GI50: > 100 µM
  TGI: > 100 µM
UACC-62 melanoma
  GI50: > 100 µM
  TGI: > 100 µM
UACC-257 melanoma
  GI50: > 100 µM
  TGI: > 100 µM
SR leukemia
  GI50: 17.4 µM
  TGI: 47 µM
NCI-H226 lung
  GI50: > 100 µM
  TGI: > 100 µM
T-47D breast
  GI50: > 100 µM
  TGI: > 100 µM
OVCAR-3 ovarian
  GI50: > 100 µM
  TGI: > 100 µM
LOX IMVI melanoma
  GI50: > 100 µM
  TGI: > 100 µM
M14 melanoma
  GI50: 31.1 µM
  TGI: 89.6 µM
NCI/ADR-RES ovarian
  GI50: > 100 µM
  TGI: > 100 µM
HOP-62 NSCLC
  GI50: > 100 µM
  TGI: > 100 µM
NCI-H460 lung
  GI50: 70.1 µM
  TGI: > 100 µM
SF-295 CNS
  GI50: > 100 µM
  TGI: > 100 µM
OVCAR-5 ovarian
  GI50: > 100 µM
  TGI: > 100 µM
